In patent US20080182899A1, “ASSOCIATION OF BETA3 RECEPTOR AGONIST AND MONOAMINE REUPTAKE INHIBITORS, PHARMACEUTICAL COMPOSITION AND THERAPEUTIC USE THEREOF” (SANOFI-AVENTIS, priority 2005, published 2008):

Tested on: mice stressed by MCS
Assay: forced swimming test after moderate chronic stress (MCS) protocol
Type: in vivo, mice (male BALB/c ByJIco)
Details: β3 agonist 1 mg/kg; for Percentage of time (immobile time of stressed animals relative to the unstressed animals): forced swimming test on day 50, 1 intraperitoneal injection per day from day 15 to day 50, fluoxetine hydrochloride 3 mg/kg; for Immobile time: forced swimming test on day 50, measured over 5 minutes, 1 intraperitoneal injection per day from day 15 to day 50, fluoxetine hydrochloride 3 mg/kg; for effect of repeated administration on immobile time (in words): forced swimming test on day 50, repeated intraperitoneal administration day 15 to day 50, fluoxetine 3 mg/kg
Experimental: The antidepressant effects of the combination according to the invention were evaluated in mice using the moderate chronic stress (MCS) protocol. This test was developed on rats by Willner (P. Willner, Neuroscience and Biobehavioral Review, 1992, 16, 525-34) and adapted to mice by Kopp et al. (C. Kopp, Behavioral Pharmacology, 1999, 10, 73-83).
Similarities between the depressive state in man and the effect of moderate chronic stress in mice were established. The emotivity of mice stressed by MCS was evaluated in the forced swimming test.
The MCS is performed in the following manner:
Male BALB/c ByJIco mice (Iffa Credo Lyons, France) 8 weeks old are placed in individual experiment cages (26×20×14 cm), provided with food and water ad libitum, at a controlled temperature of 22±1° C.
In the context of the protocol, the mice are subjected to a series of stresses such as forced bathing, food and/or water deprivation, housing in cages containing wet sawdust, permutation of the day/night cycle, maintenance under constant illumination or in darkness, each of these restrictions possibly lasting from 2 hours to 24 hours.
A first group of control animals is not subjected to the MCS (group 1—unstressed).
The animals subjected to the MCS are divided into 4 groups on day 15: • Group 2 (saline stress) consists of control animals receiving one intraperitoneal injection per day of physiological fluid. • Group 3 (fluoxetine stress) receives 1 intraperitoneal injection per day of fluoxetine hydrochloride at a rate of 3 mg/kg. • Group 4 (β3 agonist stress) receives 1 intraperitoneal injection per day of ethyl [(7S)-7(2R)-2-(3-chlorophenyl)-2-hydroxyethylamino-5,6,7,8-tetrahydronaphthalen-2-yloxy]acetate hydrochloride at a rate of 1 mg/kg. • Group 5 (fluoxetine+β3 agonist stress) receives 1 intraperitoneal injection per day of a solution containing fluoxetine hydrochloride (3 mg/kg) and ethyl [(7S)-7(2R)-2-(3-chlorophenyl)-2-hydroxyethylamino-5,6,7,8-tetrahydro-naphthalen-2-yloxy]acetate hydrochloride (1 mg/kg).
The injections are performed from day 15 to day 50.
On day 50, each group is subjected to the forced swimming test. […] The immobile time is measured over a period of 5 minutes.

SMILES | Percentage of time (immobile time of stressed animals relative to the unstressed animals) | Immobile time | effect of repeated administration on immobile time (in words)
CNCCC(Oc1ccc(C(F)(F)F)cc1)c1ccccc1 (stereo not drawn) [fluoxetine] | +21.5% | 178.4 s | does not significantly modify this parameter
CCOC(=O)COc1ccc2c(c1)C[C@@H](NC[C@H](O)c1cccc(Cl)c1)CC2.Cl [β3 agonist, ethyl [(7S)-7(2R)-2-(3-chlorophenyl)-2-hydroxyethylamino-5,6,7,8-tetrahydronaphthalen-2-yloxy]acetate hydrochloride] | +25.1% | 182.0 s | does not significantly modify this parameter
